According to US20230295164A1, “COMPOUNDS HAVING ANTIBACTERIAL ACTIVITY” (The Trustees of Princeton University, priority 2020, published 2023):

How the values were obtained:
Assay in all cases: MIC testing, broth microdilution in CAMHB
Type in all cases: cell-based
Settings in all cases: 37° C., 18-20 hr, lowest concentration that completely inhibits visible growth
[1] = tested on: Escherichia coli, ATCC BAA-198
Experimental: (§1) Compounds 1-71 were subsequently tested to determine MICs of the compounds relative to the following five species/strains of bacteria: Staphylococcus aureus, NRS384; Enterococcus faecalis, ATCC 51575; Salmonella typhimurium, CMCC 50115; Escherichia coli, ATCC BAA-198; and Acinetobacter baumannii, ATCC 17978. MIC testing of compounds was conducted according to the following protocol.
(§2) For each strain to be tested, made fresh streaks onto CAMHA from −80° C. glycerol stocks.
(§3) • CAMHB: Dissolved 22 g of the powder per 1 L of purified water. Mixed well. Autoclaved at 121° C. for 10 minutes. Stored at room temperature (RT) for no more than 1 week. • Saline: Dissolved 9 g of the powder per 1 L of purified water. Mixed well. Autoclaved at 121° C. for 30 minutes. Stored at room temperature (RT) for no more than 1 week.
(§4) Prepared the stock solutions of the tested compounds.
(§5) For compounds: • a) Dispensed 20 ul compound to the wells in column 1, and 20 ul DMSO to the wells in column 2 to 12; • b) Diluted the compounds by transferring 10 ul compounds from column 1 to 20 ul DMSO in column 2; mix with pipette. • c) Repeated until column 11 to get 3×serial dilutions. Column 12 was the DMSO control.
(§6) A multichannel pipette was used to deliver 1 μl of the diluted compound into each well of the corresponding daughter plate.
(§7) Scraped 4-8 single colonies from an agar plate into 5 ml saline in a 14 ml Falcon conical tube. Vortexed the tube to suspend the bacteria. Adjusted the turbidity to ˜0.2 (corresponding to 0.5 McFarland) with an Ultrospec 10 Cell density meter.
(§8) The strain suspension was diluted 200-fold in CAMHB medium and dispense into a sterile reservoir. A multichannel pipette was then used to deliver 99 μl of the diluted inocula into each well of the corresponding daughter plate.
(§9) Incubate the daughter plates at 37° C., 85% humidity for 18-20 hr.
(§10) A magnifying mirror device was used for ease of scoring the presence or absence of growth in the wells. 96-well micro-plates were photographed.

[2] = tested on: Enterococcus faecalis, ATCC 51575
Experimental: as §1, §2, §3, §4, §5, §6, §7, §8, §9, §10

[3] = tested on: Salmonella typhimurium, CMCC 50115
Experimental: as §1, §2, §3, §4, §5, §6, §7, §8, §9, §10

[4] = tested on: Acinetobacter baumannii, ATCC 17978
Experimental: as §1, §2, §3, §4, §5, §6, §7, §8, §9, §10

[5] = tested on: Staphylococcus aureus, NRS384
Experimental: as §1, §2, §3, §4, §5, §6, §7, §8, §9, §10

| Structure (SMILES) | Compound MICs, Escherichia coli, ATCC BAA-198 [1] [µg/mL] | Compound MICs, Enterococcus faecalis, ATCC 51575 [2] [µg/mL] | Compound MICs, Salmonella typhimurium, CMCC 50115 [3] [µg/mL] | Compound MICs, Acinetobacter baumannii, ATCC 17978 [4] [µg/mL] | Compound MICs, Staphylococcus aureus, NRS384 [5] [µg/mL] |
| --- | --- | --- | --- | --- | --- |
| Nc1nc(N)c2c(n1)c(-c1cccnc1)cc1c2ccn1Cc1ccc(F)cc1 [Compound 43] | 64 | 0.09 | 2.37 | 64 | 2.37 |
| Nc1nc(N)c2c(ccc3c2ccn3Cc2ccc(Br)c3ccccc23)n1 [Compound 44] | 7.11 | 0.03 | 7.11 | 64 | 0.09 |
| Nc1nc(N)c2c(n1)c(Br)cc1c2ccn1Cc1ccc(F)cc1 [Compound 46] | >64 | ≤0.001 | 2.37 | 7.11 | 0.79 |
| C#Cc1ccc(Cn2ccc3c4c(N)nc(N)nc4c(Br)cc32)cc1 [Compound 47] | >64 | 0.003 | 2.37 | >64 | 0.09 |
| Nc1nc(N)c2c(n1)c(C1CC1)cc1c2ccn1Cc1ccc(F)cc1 [Compound 49] | >64 | 0.26 | 2.37 | >64 | 2.37 |
| Nc1nc(N)c2c(n1)c(-c1ccc(F)cc1)cc1c2ccn1Cc1ccc(F)cc1 [Compound 52] | >64 | 2.37 | 21.3 | >64 | 7.11 |
| C=C(Cn1ccc2c3c(N)nc(N)nc3c(Br)cc21)C(=O)OC [Compound 54] | >64 | 0.003 | 21.3 | 64 | 2.37 |

The next lines start with the values.

| Compound MICs, Escherichia coli, ATCC BAA-198 [1] [µg/mL] | Compound MICs, Enterococcus faecalis, ATCC 51575 [2] [µg/mL] | Compound MICs, Salmonella typhimurium, CMCC 50115 [3] [µg/mL] | Compound MICs, Acinetobacter baumannii, ATCC 17978 [4] [µg/mL] | Compound MICs, Staphylococcus aureus, NRS384 [5] [µg/mL] | Structure (SMILES) |
| --- | --- | --- | --- | --- | --- |
| 7.11 | 0.003 | 0.03 | 7.11 | 0.09 | Nc1nc(N)c2c(ccc3c2ccn3Cc2ccc(C(F)(F)F)nc2)n1 [Compound 50] |
| 21.3 | 0.003 | 0.26 | >64 | 0.26 | Nc1nc(N)c2c(ccc3c2ccn3Cc2ccc(B(O)O)cc2)n1 [Compound 51] |
| 21.3 | 0.26 | 0.26 | 64 | 0.26 | N#Cc1cncc(Cn2ccc3c4c(N)nc(N)nc4ccc32)c1 [Compound 53] |
| 7.11 | 0.03 | 0.26 | 2.37 | 0.26 | Cc1cc2c(ccn2Cc2ccc(F)cc2)c2c(N)nc(N)nc12 [Compound 55] |
| 7.11 | 0.01 | 0.03 | 2.37 | 0.03 | Nc1nc(N)c2c(ccc3c2ccn3Cc2ccnc(F)c2)n1 [Compound 56] |
